Test [1] relates to Escherichia coli. The test can be described thus: Antimicrobial activity against beta-lactamase CTX-M-15-producing fluoroquinolone-resistant Escherichia coli FMV5825 expressing qnrB2 and aac(6')-Ib-cr and harboring gyrA Ser83Ile and Asp87Asn mutant gene and ParC Ser80Ile and Glu84Val mutant gene obtained from dog with urinary tract infection by broth microdilution method. It is filed as functional. A general note: Dilution methods test growth across graded concentrations, often in twofold steps.

The subject of test [2] is Escherichia coli. The test can be described thus: Antimicrobial activity against Azide-resistant Escherichia coli J53 by broth microdilution method. The format is functional.
The test system of test [3] is Escherichia coli. The test can be described thus: microbe, parasite or virus in culture. As to conditions: J53.
For test [4], the system named is Escherichia coli. Briefly: Antimicrobial activity against beta-lactamase CTX-M-15-producing fluoroquinolone-resistant Escherichia coli FMV5825 expressing qnrB2 and aac(6')-Ib-cr and harboring gyrA Ser83Ile and Asp87Asn mutant gene and ParC Ser80Ile and Glu84Val mutant gene obtained from dog with urinary tract infection by broth microdilution method in presence of beta-lactamase inhibitor clavulanic acid. It is filed as functional. The following applies: FMV5825, Urine.

Test [5] concerns Escherichia coli. Briefly: Antimicrobial activity against Azide-resistant Escherichia coli J53 transconjugant harboring Escherichia coli DH5alpha-5825 qnrB2 gene by broth microdilution method in presence of beta-lactamase inhibitor clavulanic acid. It is filed as functional.
Test [6] deals with Escherichia coli. Briefly: Antimicrobial activity against Azide-resistant Escherichia coli J53 by broth microdilution method in presence of beta-lactamase inhibitor clavulanic acid. It is filed as functional.
In test [7] the test system is Escherichia coli. Briefly: Antimicrobial activity against Escherichia coli harboring qnr gene assessed as resistant isolate. It is filed as functional.
Test [8] deals with Escherichia coli. Briefly: Antimicrobial activity against beta-lactamase CTX-M-15-producing fluoroquinolone-resistant Escherichia coli FMV5825 expressing qnrB2 and aac(6')-Ib-cr and harboring gyrA Ser83Ile and Asp87Asn mutant gene and ParC Ser80Ile and Glu84Val mutant gene obtained from dog with urinary tract infection by broth microdilution method in presence of beta-lactamase inhibitor Tazobactam. It is filed as functional. The following applies: FMV5825, Urine.

The test system of test [9] is Escherichia coli. Briefly: Antimicrobial activity against Azide-resistant Escherichia coli J53 transconjugant harboring Escherichia coli DH5alpha-5825 qnrB2 gene by broth microdilution method in presence of beta-lactamase inhibitor Tazobactam. It is filed as functional.
For test [10], the system named is Escherichia coli. Briefly: Antimicrobial activity against Azide-resistant Escherichia coli J53 by broth microdilution method in presence of beta-lactamase inhibitor Tazobactam. It is filed as functional.

Values after ≈ are worked out from the molar mass of the structure shown. Some results are limits rather than exact numbers.

For 23 molecules, MIC and Activity results are on record in ChEMBL document CHEMBL1275581, “Detection of the pandemic O25-ST131 human virulent Escherichia coli CTX-M-15-producing clone harboring the qnrB2 and aac(6')-Ib-cr genes in a dog” (2009).

For `C[C@@H](O)[C@H]1C(=O)N2C(C(=O)O)=C(S[C@@H]3CN[C@H](C(=O)Nc4cccc(C(=O)O)c4)C3)[C@H](C)[C@H]12`, the MIC is no more than 0.5 µg/mL against Escherichia coli [1] (FMV5825, Urine); no more than 0.5 µg/mL in the test on Escherichia coli [2]; no more than 0.5 µg/mL against Escherichia coli [3].

Regarding `CO/N=C(\C(=O)N[C@@H]1C(=O)N2C(C(=O)[O-])=C(C[N+]3(C)CCCC3)CS[C@H]12)c1csc(N)n1`, the MIC against Escherichia coli [1] (FMV5825, Urine) is greater than 16 µg/mL; in the test with Escherichia coli [2] it was no more than 1 µg/mL; against Escherichia coli [3], greater than 16 µg/mL.

`NCC[C@H](O)C(=O)N[C@@H]1C[C@H](N)[C@@H](O[C@H]2O[C@H](CN)[C@@H](O)[C@H](O)[C@H]2O)[C@H](O)[C@H]1O[C@H]1O[C@H](CO)[C@@H](O)[C@H](N)[C@H]1O` [AMIKACIN]: the MIC with Escherichia coli [1] (FMV5825, Urine) amounted to 16 µg/mL (≈ 27.3 µM); in the test on Escherichia coli [2], 0.5 µg/mL (≈ 0.854 µM); against Escherichia coli [3] it was 2 µg/mL (≈ 3.42 µM).

For the molecule `CC1(C)S[C@@H]2[C@H](NC(=O)[C@H](N)c3ccc(O)cc3)C(=O)N2[C@H]1C(=O)O` [AMOXICILLIN], the MIC in the test on Escherichia coli [4] stood at 8 µg/mL; in the test with Escherichia coli [5], 8 µg/mL; in the test with Escherichia coli [6] it was 2 µg/mL.

With `CC1(C)S[C@@H]2[C@H](NC(=O)[C@H](N)c3ccccc3)C(=O)N2[C@H]1C(=O)O` [AMPICILLIN], the MIC in the test on Escherichia coli [1] (FMV5825, Urine) is greater than 16 µg/mL; in the test on Escherichia coli [2], no more than 4 µg/mL; in the test on Escherichia coli [3], greater than 16 µg/mL.

With `C[C@H]1[C@H](NC(=O)/C(=N\OC(C)(C)C(=O)O)c2csc(N)n2)C(=O)N1S(=O)(=O)O` [AZTREONAM], the MIC against Escherichia coli [1] (FMV5825, Urine) was greater than 16 µg/mL; in the test with Escherichia coli [2], no more than 1 µg/mL; in the test with Escherichia coli [3] it was greater than 16 µg/mL.

Turning to `Cc1nnc(SCC2=C(C(=O)O)N3C(=O)[C@@H](NC(=O)Cn4cnnn4)[C@H]3SC2)s1` [CEFAZOLIN], the MIC is greater than 16 µg/mL against Escherichia coli [1] (FMV5825, Urine); no more than 16 µg/mL against Escherichia coli [2]; greater than 16 µg/mL against Escherichia coli [3].

In the case of `CO/N=C(\C(=O)N[C@@H]1C(=O)N2C(C(=O)O)=C(COC(C)=O)CS[C@H]12)c1csc(N)n1` [CEFOTAXIME], the MIC against Escherichia coli [1] (FMV5825, Urine) is greater than 64 µg/mL; in the test on Escherichia coli [4], no more than 0.25 µg/mL; in the test with Escherichia coli [5], no more than 0.25 µg/mL; against Escherichia coli [2], no more than 1 µg/mL; in the test on Escherichia coli [6], no more than 0.25 µg/mL; against Escherichia coli [3], greater than 64 µg/mL.

For `CO[C@@]1(NC(=O)C2SC(=C(C(N)=O)C(=O)O)S2)C(=O)N2C(C(=O)O)=C(CSc3nnnn3C)CS[C@@H]21` (some centres not stated) [CEFOTETAN], the MIC in the test with Escherichia coli [1] (FMV5825, Urine) was no more than 16 µg/mL; in the test with Escherichia coli [2] it was no more than 16 µg/mL; in the test on Escherichia coli [3], no more than 16 µg/mL.

On to `CO[C@@]1(NC(=O)Cc2cccs2)C(=O)N2C(C(=O)O)=C(COC(N)=O)CS[C@@H]21` [CEFOXITIN], for which the MIC is no more than 4 µg/mL against Escherichia coli [1] (FMV5825, Urine); no more than 4 µg/mL in the test on Escherichia coli [2]; no more than 4 µg/mL against Escherichia coli [3].

`COCC1=C(C(=O)O)N2C(=O)[C@@H](NC(=O)/C(=N\OC)c3csc(N)n3)[C@H]2SC1` [CEFPODOXIME]: the MIC against Escherichia coli [1] (FMV5825, Urine) is greater than 4 µg/mL; with Escherichia coli [2] it was no more than 1 µg/mL; with Escherichia coli [3] it was greater than 4 µg/mL.

Consider `CC(C)(O/N=C(\C(=O)N[C@@H]1C(=O)N2C(C(=O)[O-])=C(C[n+]3ccccc3)CS[C@H]12)c1csc(N)n1)C(=O)O` [CEFTAZIDIME], for which the MIC was 128 µg/mL (≈ 234 µM) with Escherichia coli [1] (FMV5825, Urine); no more than 0.25 µg/mL in the test on Escherichia coli [4]; no more than 0.25 µg/mL in the test with Escherichia coli [5]; no more than 1 µg/mL against Escherichia coli [2]; no more than 0.25 µg/mL in the test with Escherichia coli [6]; 64 µg/mL (≈ 117 µM) in the test on Escherichia coli [3].

With `CO/N=C(\C(=O)N[C@@H]1C(=O)N2C(C(=O)O)=C(COC(N)=O)CS[C@H]12)c1ccco1` [CEFUROXIME], the MIC in the test on Escherichia coli [1] (FMV5825, Urine) was greater than 16 µg/mL; with Escherichia coli [2] it was 1 µg/mL (≈ 2.36 µM); against Escherichia coli [3], greater than 16 µg/mL.

`O=C(O)c1cn(C2CC2)c2cc(N3CCNCC3)c(F)cc2c1=O` [CIPROFLOXACIN] showed an MIC in the test on Escherichia coli [1] (FMV5825, Urine) of 128 µg/mL (≈ 386 µM). Besides, the Activity in the test with Escherichia coli [7] is 26%.

On to `C[C@@H](O)[C@H]1C(=O)N2C(C(=O)O)=C(SCCNC=N)C[C@H]12` [IMIPENEM ANHYDROUS], for which the MIC in the test on Escherichia coli [1] (FMV5825, Urine) was no more than 1 µg/mL; in the test with Escherichia coli [2], no more than 1 µg/mL; in the test with Escherichia coli [3] it was no more than 1 µg/mL.

As to `C[C@H]1COc2c(N3CCN(C)CC3)c(F)cc3c(=O)c(C(=O)O)cn1c23.C[C@H]1COc2c(N3CCN(C)CC3)c(F)cc3c(=O)c(C(=O)O)cn1c23.O` [LEVOFLOXACIN], the MIC in the test with Escherichia coli [1] (FMV5825, Urine) was 32 µg/mL; with Escherichia coli [2] it was 0.031 µg/mL; in the test with Escherichia coli [3], 0.031 µg/mL.

Regarding `C[C@@H](O)[C@H]1C(=O)N2C(C(=O)O)=C(S[C@@H]3CN[C@H](C(=O)N(C)C)C3)[C@H](C)[C@H]12` [MEROPENEM], the MIC with Escherichia coli [1] (FMV5825, Urine) was no more than 2 µg/mL; in the test with Escherichia coli [2], no more than 2 µg/mL; against Escherichia coli [3], no more than 2 µg/mL.

Turning to `CCn1cc(C(=O)O)c(=O)c2ccc(C)nc21` [NALIDIXIC ACID], the MIC against Escherichia coli [1] (FMV5825, Urine) is greater than 256 µg/mL; in the test with Escherichia coli [2], 4 µg/mL (≈ 17.2 µM); against Escherichia coli [3], 16 µg/mL (≈ 68.9 µM). Also, in the test with Escherichia coli [7], the Activity turned out to be 34%.

`CCn1cc(C(=O)O)c(=O)c2cc(F)c(N3CCNCC3)cc21` [NORFLOXACIN]: the MIC turned out to be 256 µg/mL (≈ 802 µM) against Escherichia coli [1] (FMV5825, Urine); 0.062 µg/mL (≈ 0.194 µM) against Escherichia coli [2]; 0.5 µg/mL (≈ 1.57 µM) against Escherichia coli [3].

Turning to `CCN1CCN(C(=O)N[C@@H](C(=O)N[C@@H]2C(=O)N3[C@@H]2SC(C)(C)[C@@H]3C(=O)O)c2ccccc2)C(=O)C1=O` [PIPERACILLIN], the MIC in the test with Escherichia coli [1] (FMV5825, Urine) was greater than 64 µg/mL; in the test on Escherichia coli [8], no more than 8 µg/mL; in the test with Escherichia coli [9], no more than 8 µg/mL; against Escherichia coli [2] it was no more than 8 µg/mL; with Escherichia coli [10] it was no more than 8 µg/mL; against Escherichia coli [3], greater than 64 µg/mL.

Regarding `CC1(C)S[C@@H]2[C@H](NC(=O)[C@H](C(=O)O)c3ccsc3)C(=O)N2[C@H]1C(=O)O` [TICARCILLIN], the MIC against Escherichia coli [1] (FMV5825, Urine) was greater than 64 µg/mL; with Escherichia coli [2], no more than 16 µg/mL; against Escherichia coli [3], greater than 64 µg/mL.

For the molecule `NC[C@H]1O[C@H](O[C@H]2[C@H](O)[C@@H](O[C@H]3O[C@H](CO)[C@@H](O)[C@H](N)[C@H]3O)[C@H](N)C[C@@H]2N)[C@H](N)C[C@@H]1O` [TOBRAMYCIN], the MIC in the test with Escherichia coli [1] (FMV5825, Urine) is greater than 8 µg/mL; against Escherichia coli [2], no more than 2 µg/mL; against Escherichia coli [3], greater than 8 µg/mL.

Regarding GENTAMICIN, the results for the MIC in the test with Escherichia coli [1] (Urine) and in the test on Escherichia coli [2] were 32 µg/mL and 0.25 µg/mL, respectively.
